Data taken from patent US20250319213A1, “FUNCTIONALIZED BISAMINOTHIOL DERIVATIVES, COMPLEXES WITH THESE BISAMINOTHIOL DERIVATIVES AND USE OF SAID COMPLEXES AS DIAGNOSTICS AND THERAPEUTICS” (ABX ADVANCED BIOCHEMICAL COMPOUNDS – BIOMEDIZINISCHE …, priority 2022, published 2025).

Tests used:
[1] = Determination of log D values (shake-flask, octanol/medium); assay type: physicochemical; conditions: for LogD (shake-flask, octanol/medium) Na-phosphate pH 7.4: 4.4 mM Na2HPO4, 2.2 mM NaH2PO4, pH 7.4
Description: Log D values were determined for different media by the shake-flask method (Andrés, A.; Rosés, M.; Ràfols, C.; Bosch, E.; Espinosa, S.; Segarra, V.; Huerta, J. M. Setup and validation of shake-flask procedures for the determination of partition coefficients (log D) from low drug amounts. Eur. J. Pharm. Sci. 2015, 76, 181-191.). In preparation, octanol was saturated with each of the used buffer solutions and vice versa. To 3 mL of octanol, together with 3 mL of buffer solution 200-300 μL of the ^99mTc-labeled radioligand (15-25 MBq, samples in triplicate) were added and shaken vigorously for 30 min. After centrifugation at 9,000 rpm for 15 min, samples were taken from both separated phases and measured by gamma-counter. Log D values were calculated as the ratio of radioactivity determined in octanol and aqueous phase.

[2] = Product stability in DPBS at 25° C.; assay type: physicochemical; conditions: DPBS (+Ca2+, +Mg2+), mean ± SD, normalized to fraction immediately after preparation
Description: (§1) In brief, the freshly produced ^99mTc-labeled radioligand solution (10-20 MBq, 20-100 μL) was added to the respective medium (200-400 μL), vortexed quickly, and shook gently at the respective temperature mentioned below. At certain time points, samples were taken, diluted, and measured by radio-RP-HPLC. Hereby, investigation of plasma samples included protein precipitation with the 4-fold volume of an ice-cold mixture of methanol/water (4/1, v/v), intensive shaking (5 min) and centrifugation (14,000 rpm, 10 min), before inspection of the supernatant. In addition, the recovery of extracted activity was calculated after activity measurement of supernatant and residue by a gamma counter.

[3] = Product stability in mouse plasma (in vitro); assay type: in vitro ADME; conditions: mean ± SD (n = 3-4), normalized to fraction immediately after preparation
Description: as §1

PSMA [4] = biological target: T1, PSMA (Homo sapiens, UniProt Q04609); assay: Direct binding affinity on LNCaP cells (saturation); conditions: [99mTc]TcO complex of the listed compound, saturation 0.3-40 nM, 1 h 37° C., mean ± SEM, read-out: Kd [nM] of [99mTc]TcO-complexes
T1 construct: host or cells: LNCaP human prostate carcinoma cells
Description: (§2) Competition, saturation and internalization assays were assessed using the high PSMA expressing human prostate carcinoma cell line LNCaP (ATCC® CRL-1740). The cells were grown as monolayer at 37° C. in a humidified atmosphere comprising 5% CO2 and 95% air in RPMI medium including 10% FCS (Merck KGAA, Germany). After washing the confluent cells twice with phosphate buffered saline (PBS) and detaching them with trypsin/EDTA (0.05%/0.02%), the cells were suspended in medium and counted (Casy TT, Omni Life Science, Germany).
For saturation monolayer of LNCaP cells were seeded, 5×10^4 cells/well in 48-well plates two days before the assay. On the day of saturation, after aspirating the medium, 160 μL of medium (for ^99mTc-labeled radioligand with D-mannitol (1 mg/mL)) were pipetted per well, for non-specific binding samples including 100 μM 2-PMPA. After preincubation for 5 min, 40 μL activity ([^68Ga]Ga-PSMA-11 or ^99mTc-labeled radioligand solution) were added (total volume/well: 200 μL). Eight concentrations ranged between 0.3 and 40 nM.
(§3) After 1 hour of incubation at 37° C. both for competition and saturation samples, the supernatants were aspirated and the cells washed twice with cold PBS. The cell lawn was lysed with 500 μL NaOH/SDS (0.1 M/1%) by shaking for 3 to 5 minutes. After transferring the lysates into measuring tubes, the activity of the samples was measured in a gamma counter (2480 Automatic Gamma Counter Wizard 2, Perkin Elmer, USA).
(§4) The half maximal inhibitory concentrations (IC50) and the dissociations constants (Kd) were calculated by fitting the data using a nonlinear curve-fitting program (GraphPad Prism 9). With the Kd value of [^68Ga]Ga-PSMA-11 on LNCaP and the known concentration of [^68Ga]Ga-PSMA-11 in the competition assay the inhibition constants (Ki) was also determined with the curve-fitting program.

PSMA [5] = biological target: T1, PSMA; assay: Competitive binding affinity on LNCaP cells against [68Ga]Ga-PSMA-11 (competition); conditions: natRe complex of the listed compound, 1 nM [68Ga]Ga-PSMA-11, 1 h 37° C., mean ± SEM
Description: as §2
For competition monolayer of LNCaP cells were seeded, 1×10^5 cells/well in 24-well plates two days before the assay. On the day of competition, after aspirating the medium, 100 μL of PBS and, for competition 100 μL of different concentrations of the test compound in PBS (10^−12 to 10^−6 M) were pipetted into the wells, simultaneously to 400 μL of medium including 1 nM of [^68Ga]Ga-PSMA-11.
as §3, §4

[6] = Product stability at room temperature (without addition of any media); assay type: physicochemical; conditions: no media, radio-RP-HPLC
Description: as §1

LNCaP cells = assay: Determination of the internalization (surface binding and internalized activity); assay type: cell-based, human; conditions: 1 h
Description: as §2
For internalization LNCaP and PC3 cells were seeded, 1×10^5 cells/well in 24-well plates two days before the assay. On the day of internalization, after aspirating the medium, 100 μL of PBS and, for non-specific binding samples, 100 μL 2-PMPA (100 μM) were pipetted into the wells, followed by 400 μL medium including activity. The concentration of the ^99mTc-labeled radioligands was 25 nM. After 1 h of incubation at 37° C. and adjacent well plates at 4° C., the supernatant was removed and the cells washed with cold PBS. Surface-bound activity was stripped with 4° C. cold acid-wash buffer (0.2 M glycine, pH 2.8) for 5 min. The acid wash buffer was transferred from the plate wells to measuring tubes, as was the PBS buffer after washing once (binding on the surface). Cytosolic activity was determined after treatment with cell lysis buffer (0.1 M NaOH/1% SDS). Cell surface and cytosolic activity were measured separately in a gamma counter. Determination of protein content from cell lysate was performed using a spectrophotometer (NanoDrop, Thermo Fisher Scientific, USA) at an absorbance of 280 nm.

T1 sequence (Q04609 whole entry): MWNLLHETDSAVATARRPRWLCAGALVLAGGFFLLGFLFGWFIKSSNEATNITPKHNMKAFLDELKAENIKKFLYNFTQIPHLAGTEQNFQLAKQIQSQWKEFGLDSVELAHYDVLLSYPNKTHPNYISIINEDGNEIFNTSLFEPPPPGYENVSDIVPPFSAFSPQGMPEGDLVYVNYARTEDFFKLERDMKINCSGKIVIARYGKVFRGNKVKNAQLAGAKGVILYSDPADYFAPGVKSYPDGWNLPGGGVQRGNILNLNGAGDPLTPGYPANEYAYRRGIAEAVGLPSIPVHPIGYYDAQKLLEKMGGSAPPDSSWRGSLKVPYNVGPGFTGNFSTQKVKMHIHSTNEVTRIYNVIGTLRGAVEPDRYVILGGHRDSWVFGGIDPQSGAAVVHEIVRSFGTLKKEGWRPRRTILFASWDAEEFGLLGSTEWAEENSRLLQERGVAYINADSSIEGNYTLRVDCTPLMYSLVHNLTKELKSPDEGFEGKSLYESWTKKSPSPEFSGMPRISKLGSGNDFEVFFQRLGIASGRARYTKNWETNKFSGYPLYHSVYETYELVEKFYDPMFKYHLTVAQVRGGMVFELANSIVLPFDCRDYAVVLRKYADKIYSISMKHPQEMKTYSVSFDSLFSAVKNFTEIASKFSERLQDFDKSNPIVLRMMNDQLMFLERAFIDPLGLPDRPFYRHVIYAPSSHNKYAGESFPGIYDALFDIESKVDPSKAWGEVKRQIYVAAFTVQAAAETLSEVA

CC1(C)CN(CCCCC(=O)N[C@@H](Cc2ccccc2)C(=O)N[C@@H](Cc2ccccc2)C(=O)N[C@@H](CCCCNC(=O)CCCCCCC(=O)NCCCC[C@H](NC(=O)N[C@@H](CCC(=O)O)C(=O)O)C(=O)O)C(=O)O)CC[N]2CC(C)(C)[S][99Tc]2(=[O])[S]1 (stereo partly shown) [[^99mTc]TcO-1]
LogD (shake-flask, octanol/medium) Na-phosphate pH 7.4 [1]: −2.18 ± 0.002 | LogD (shake-flask, octanol/medium) PBS 0.1M pH 7.4 [1]: −1.62 ± 0.01 | LogD (shake-flask, octanol/medium) TRIS buffer 0.1M pH 7.4 [1]: −2.18 ± 0.01 | Fraction of radioligand in DPBS at 25° C., 1 h [2]: 101.5 ± 0.6% | Fraction of radioligand in DPBS at 25° C., 2 h [2]: 99.5 ± 0.8% | Fraction of radioligand in DPBS at 25° C., 4 h [2]: 100.2 ± 1.0% | Fraction of radioligand in DPBS at 25° C., 20 h [2]: 93.5 ± 1.8% | Fraction of radioligand after 6 h in mouse plasma at 37° C. [3]: 96.8 ± 0.3%

CC(C)(S)CNCCN(CCCCC(=O)N[C@@H](CCCCNC(=O)CCCCCCC(=O)NCCCC[C@H](NC(=O)N[C@@H](CCC(=O)O)C(=O)O)C(=O)O)C(=O)O)CC(C)(C)S [Compound 3]
Kd (PSMA [4]): 15.8 ± 9.1 nM | Ki (PSMA [5]): 7.3 ± 1.6 nM

CC(C)(S)CNCCN(CCCCC(=O)N[C@@H](Cc1ccccc1)C(=O)N[C@@H](Cc1ccccc1)C(=O)N[C@@H](CCCCNC(=O)CCCCCCC(=O)NCCCC[C@H](NC(=O)N[C@@H](CCC(=O)O)C(=O)O)C(=O)O)C(=O)O)CC(C)(C)S [Compound 1]
Kd (PSMA [4]): 15.5 ± 3.2 nM | Ki (PSMA [5]): 4.8 ± 3.4 nM

CC1(C)CN(CCCCC(=O)N[C@@H](CCCCNC(=O)CCCCCCC(=O)NCCCC[C@H](NC(=O)N[C@@H](CCC(=O)O)C(=O)O)C(=O)O)C(=O)O)CC[N]2CC(C)(C)[S][99Tc]2(=[O])[S]1 (stereo partly shown) [[^99mTc]TcO-3]
Fraction of radioligand at indicated time point after preparation, 0 h ([6]; 0 h): 96% | Fraction of radioligand at indicated time point after preparation, 2 h ([6]; 2 h): 93% | Fraction of radioligand at indicated time point after preparation, 4 h ([6]; 4 h): 92% | Fraction of radioligand at indicated time point after preparation, 6 h ([6]; 6 h): 91% | LogD (shake-flask, octanol/medium) Na-phosphate pH 7.4 [1]: −1.93 ± 0.01 | LogD (shake-flask, octanol/medium) PBS 0.1M pH 7.4 [1]: −2.07 ± 0.01 | LogD (shake-flask, octanol/medium) TRIS buffer 0.1M pH 7.4 [1]: −2.08 ± 0.02 | Fraction of radioligand in DPBS at 25° C., 1 h [2]: 98.2 ± 1.9% | Fraction of radioligand in DPBS at 25° C., 2 h [2]: 97.3 ± 3.6% | Fraction of radioligand in DPBS at 25° C., 4 h [2]: 98.4 ± 1.0% | Fraction of radioligand in DPBS at 25° C., 20 h [2]: 89.1 ± 7.4% | % Internalization, 37° C. (LNCaP cells; 37° C.): 35.8% | Internalization, 4° C. (% AD/mg Protein) (LNCaP cells; cytosolic activity, 25 nM radioligand, 4° C., mean ± SEM): 0.7 ± 0.2 % AD/mg Protein | Internalization, 37° C. (% AD/mg Protein) (LNCaP cells; cytosolic activity, 25 nM radioligand, 37° C., mean ± SEM): 1.0 ± 0.3 % AD/mg Protein | Binding, 4° C. (% AD/mg Protein) (LNCaP cells; surface-bound activity, 25 nM radioligand, 4° C., mean ± SEM): 2.1 ± 1.2 % AD/mg Protein | Binding, 37° C. (% AD/mg Protein) (LNCaP cells; surface-bound activity, 25 nM radioligand, 37° C., mean ± SEM): 1.8 ± 0.3 % AD/mg Protein | Fraction of radioligand after 6 h in mouse plasma at 37° C. [3]: 98.5 ± 0.8%

CC1(C)CN(CCCCC(=O)N[C@@H](Cc2ccccc2)C(=O)N[C@@H](Cc2ccccc2)C(=O)N[C@H](CCCCNC(=O)CCCCCCC(=O)NCCCC[C@H](NC(=O)N[C@@H](CCC(=O)O)C(=O)O)C(=O)O)C(=O)O)CC[N]2CC(C)(C)[S][99Tc]2(=[O])[S]1 (stereo partly shown) [[^99mTc]TcO-2]
LogD (shake-flask, octanol/medium) Na-phosphate pH 7.4 [1]: −2.08 ± 0.01 | LogD (shake-flask, octanol/medium) PBS 0.1M pH 7.4 [1]: −2.16 ± 0.03 | LogD (shake-flask, octanol/medium) TRIS buffer 0.1M pH 7.4 [1]: −2.16 ± 0.02 | Fraction of radioligand in DPBS at 25° C., 1 h [2]: 89.9 ± 2.3% | Fraction of radioligand in DPBS at 25° C., 2 h [2]: 97.7 ± 2.3% | Fraction of radioligand in DPBS at 25° C., 4 h [2]: 80.7 ± 12.0% | Fraction of radioligand in DPBS at 25° C., 20 h [2]: 89.2 ± 2.7% | Fraction of radioligand after 6 h in mouse plasma at 37° C. [3]: 98.3 ± 1.1%
